# Results: PubChem BioAssay (NCI)
#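 How tested: cells in 96-well plates exposed to compound for 48 hours at five concentrations. TGI: total growth inhibition.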
# Experiments:
# Assay in all cases: NCI tumour cell line growth inhibition, 48 h
# HCT-15 colon = tested on: HCT-15 colon
# MOLT-4 leukemia = tested on: MOLT-4 leukemia
# OVCAR-4 ovarian = tested on: OVCAR-4 ovarian
# HT29 colon = tested on: HT29 colon
# SN12C renal = tested on: SN12C renal
# PC-3 prostate = tested on: PC-3 prostate
# MDA-MB-231 breast = tested on: MDA-MB-231 breast
# TK-10 renal = tested on: TK-10 renal
# DU-145 prostate = tested on: DU-145 prostate
# HL-60(TB) leukemia = tested on: HL-60(TB) leukemia
# KM12 colon = tested on: KM12 colon
# IGROV1 ovarian = tested on: IGROV1 ovarian
# SK-OV-3 ovarian = tested on: SK-OV-3 ovarian
# HS 578T breast = tested on: HS 578T breast
SMILES,TGI (HCT-15 colon),TGI (MOLT-4 leukemia),TGI (OVCAR-4 ovarian),TGI (HT29 colon),TGI (SN12C renal),TGI (PC-3 prostate),TGI (MDA-MB-231 breast),TGI (TK-10 renal),TGI (DU-145 prostate),TGI (HL-60(TB) leukemia),TGI (KM12 colon),TGI (IGROV1 ovarian),TGI (SK-OV-3 ovarian),TGI (HS 578T breast)
CCOC(=O)C1C(=O)CC(C)(O)C(C(=O)OCC)C1c1ccc(N(C)C)cc1 (stereo unspecified),> 100 µM,> 100 µM,> 100 µM,> 100 µM,> 100 µM,> 100 µM,> 100 µM,> 100 µM,> 100 µM,> 100 µM,> 100 µM,> 100 µM,–,–
N#CN=Nc1cc(Cl)c(N=NC#N)cc1Cl,> 100 µM,> 100 µM,> 100 µM,> 100 µM,> 100 µM,–,–,> 100 µM,–,> 100 µM,> 100 µM,> 100 µM,> 100 µM,–
NC(=O)/N=C(\N)NC(=O)c1ccccc1,> 100 µM,> 100 µM,–,> 100 µM,> 100 µM,> 100 µM,> 100 µM,> 100 µM,> 100 µM,> 100 µM,> 100 µM,> 100 µM,–,–
CC(N)Cc1cccc(C(F)(F)F)c1 (stereo unspecified),> 100 µM,–,> 100 µM,> 100 µM,> 100 µM,–,–,> 100 µM,–,> 100 µM,> 100 µM,> 100 µM,> 100 µM,–
Cc1ccc(S(=O)(=O)Nn2c(-c3ccccc3)c(C#N)c(-c3ccc(Cl)cc3)c(C#N)c2=O)cc1,> 100 µM,52.8 µM,> 100 µM,–,> 100 µM,98 µM,89.5 µM,> 100 µM,–,31.7 µM,–,–,> 100 µM,–
COC(=O)c1cc(Br)c(C(=O)C(Cl)(Cl)Cl)[nH]1,> 100 µM,> 100 µM,> 100 µM,> 100 µM,> 100 µM,> 100 µM,> 100 µM,> 100 µM,> 100 µM,> 100 µM,> 100 µM,> 100 µM,> 100 µM,–
CCSC(=Nc1ccccc1)SC,> 100 µM,> 100 µM,> 100 µM,> 100 µM,> 100 µM,–,–,> 100 µM,–,> 100 µM,> 100 µM,> 100 µM,> 100 µM,–
COC(=O)[C@@H]1O[C@]12C(CO[Si](C)(C)C(C)(C)C)OC(n1ccc(=O)[nH]c1=O)C2O[Si](C)(C)C(C)(C)C (stereo partly specified),> 100 µM,76.5 µM,> 100 µM,43.4 µM,85.7 µM,68.1 µM,> 100 µM,83.9 µM,61.1 µM,62.6 µM,77.9 µM,46.1 µM,> 100 µM,–
CC(=O)c1ccc(-c2oc(-c3ccccc3)cc2-c2ccc3c(c2)OCO3)s1,–,> 100 µM,–,> 100 µM,> 100 µM,–,–,> 100 µM,> 100 µM,2.36 µM,–,> 100 µM,> 100 µM,> 100 µM
CS(=O)(=O)c1nc(N)nc2nc[nH]c12,> 100 µM,> 100 µM,> 100 µM,> 100 µM,> 100 µM,–,–,> 100 µM,–,> 100 µM,> 100 µM,> 100 µM,> 100 µM,–
O=C(O)C(Cc1cccs1)NC(=O)C(F)(F)F (stereo unspecified),> 100 µM,> 100 µM,> 100 µM,> 100 µM,> 100 µM,–,–,–,–,> 100 µM,> 100 µM,> 100 µM,> 100 µM,–
CN(C)CCOc1cc2c(c3ccccc13)-c1ccccc1C2=O,4.19 µM,3.92 µM,2.68 µM,3.44 µM,7.43 µM,–,–,–,–,2.7 µM,3.03 µM,7.35 µM,24.6 µM,–
CC1(C)S[C@@H]2[C@H](NC(=O)CCC[C@@H](N)C(=O)O)C(=O)N2[C@H]1C(=O)O,> 50 µM,> 50 µM,> 50 µM,> 50 µM,> 50 µM,–,–,–,–,> 50 µM,> 50 µM,> 50 µM,49.9 µM,–
Cc1c(O)c(OC2OC(CO)C(O)C(O)C2O)cc2c1CC[C@@H]1C2(C)C(=O)C[C@]2(C)[C@@H]([C@@](C)(O)C(O)/C=C/C(C)(C)O)[C@H](O)C[C@@]12C (stereo partly specified),> 100 µM,> 100 µM,> 100 µM,> 100 µM,> 100 µM,> 100 µM,> 100 µM,> 100 µM,> 100 µM,> 100 µM,> 100 µM,> 100 µM,> 100 µM,–
CCOC(=O)c1sc2nc(SC)nc(Nc3ccc4c(c3)OCCCO4)c2c1N,> 100 µM,8.25 µM,> 100 µM,> 100 µM,> 100 µM,> 100 µM,> 100 µM,> 100 µM,> 100 µM,> 100 µM,> 100 µM,> 100 µM,> 100 µM,–
CC(=O)O[C@H]1C(=O)[C@@]2(C)C(C(OC(=O)c3ccccc3)[C@]3(O)CC(OC(=O)C(O)C(NC(=O)c4ccccc4)c4ccc(F)cc4)C(C)=C1C3(C)C)[C@]1(OC(C)=O)CO[C@@H]1C[C@@H]2O (stereo partly specified),> 10 µM,2.73 µM,> 10 µM,> 3.4 µM,> 10 µM,> 10 µM,0.608 µM,> 10 µM,0.0104 µM,–,> 5.45 µM,> 10 µM,> 10 µM,–
